Where “and” joins values, the source holds several entries; their conditions need not be identical. Identical values can stand only once.
System: 521955-158-R2-J5-PDC spheroids with stroma, growth inhibition
Test: Anticancer human tumor 521955-158-R2-J5-PDC patient-derived pancreatic carcinoma cell line growth inhibition [TAK]
Conditions: for viability, T/C: stronger effect = lower value; active means viability on the fitted dose curve at most 10% of control; inactive means the rest
Excerpt: Combinatorial screen of targeted agents with TAK-243 and ipatasertib in multi-cell type tumor spheroids
A high-throughput screen of multi-cell type tumor spheroids was designed to identify active combinations of targeted small molecules and TAK-243 or ipatasertib. Complex spheroids include a stromal component modeled by human endothelial cells (HUVEC) and fibroblasts modeled by human mesenchymal stem cells (MSCs). The concentration ranges selected for each drug and investigational agent were based upon clinically achievable concentrations if the clinical Cmax of the agent was known.
Compounds. The drugs and investigational agents: TAK-243 (785004), ipatasertib (767898), everolimus (733504), selumetinib (741078), bortezomib (756655), trametinib (758246), ixazomib (758254), vemurafenib (761431), dabrafenib (764134), sapanisertib (764658), alpelisib (765974), and copanlisib (816437), were obtained from the National Cancer Institute (NCI) Developmental Therapeutics Program Chemical Repository. The FDA-approved anticancer drug set is available from the NCI Developmental Therapeutics Program. […] The stock solutions were prepared in dimethyl sulfoxide (DMSO, Sigma-Aldrich, St. Louis, MO, cat. D2650) at 800-fold the tested concentration and stored at -70 degrees C prior to their use. All drugs and investigational agents were tested over a range starting from a high concentration at or near the clinical Cmax and decreasing in half-log increments. If the clinical Cmax for an agent had not been determined, the highest concentration tested was 10 microM.
NCI60 Cell Culture. NCI60 cell lines were obtained from the NCI Developmental Therapeutics Program Tumor Repository. For each lot of cells, the Repository performed Applied Biosystems AmpFLSTR Identifiler testing with PCR amplification to confirm consistency with the published Identifier STR profile for each cell line. Cells were kept in continuous culture for no more than 20 passages. The optimal seeding densities for each of the cell lines at each time point assessed were determined prior to performing the concentration response studies. Briefly, the NCI60 human tumor lines were grown as monolayers in RPMI 1640 medium supplemented with 10% FBS and 2 mmol/L L-glutamine.
An additional 2 lines were from the NCI60 cell line panel including melanomas, MALME-3M and SK-MEL-2. Pooled donor human umbilical vein endothelial cells (HUVEC, Lonza, cat. CC-2519) and human mesenchymal stem cells (hMSC, Lonza, cat. PT-2501) were purchased from Lonza (Walkersville, MD).
PDMR cell lines were grown in complete medium (DC medium): Dulbecco's modified Eagle's medium (DMEM)/F12 supplemented with 5% fetal bovine serum (FBS), 2 mM L-glutamine, 100 U/mL penicillin and 100 µg/ml streptomycin, 0.4 µg/ml hydrocortisone, 10 ng/ml epidermal growth factor (EGF) recombinant human protein, 24 µg/mL adenine, and 0.1 mg/mL primocin. During culture from frozen stock vials, PDMR cells were cultured in the same medium containing 10 µM Y-27632 (see Table 3). The PDCs were cultured in complete DMEM/F12 media without 10 microM Y-27632 dihydrochloride for at least two passages prior to the screen. The pooled donor HUVEC and hMSC were cultured in endothelial cell growth medium 2 (PromoCell, Heidelberg, Germany, cat. C-22011) and mesenchymal stem cell growth medium 2 (PromoCell, cat. C-28009), respectively. For all experiments, HUVEC and hMSC were used at passages </=5.
For the pre-screen, cell seeding densities were determined from a titration spanning the range from 5,000 to 313 cells per well. The mct-spheroids including 60% malignant cells, 25% HUVEC and 15% MSC dispensed as a mixture into U-bottom Ultra-Low Attachment 384-well plates (Corning, NY)
High-throughput Drug Combination Screening.
Prior to their inoculation into 384-well plates, malignant cells, HUVEC, and hMSC were removed from T flasks using TrypLE express (Thermo Fisher Scientific, cat. 12605036) and harvested by centrifugation for 5 min at 233 x g. […]

[1] = curve of first compound, second compound 0.3 µM
[2] = curve of first compound, second compound 0.949 µM
[3] = curve of first compound, second compound 3 µM
[4] = curve of first compound, second compound 9.49 µM
[5] = curve of first compound, second compound 30 µM
[6] = second compound 0.3 µM, first compound 0.0316 µM
[7] = second compound 0.3 µM, first compound 0.1 µM
[8] = second compound 0.3 µM, first compound 0.316 µM
[9] = second compound 0.3 µM, first compound 1 µM
[10] = second compound 0.3 µM, first compound 3.16 µM
[11] = second compound 0.3 µM, first compound 10 µM
[12] = second compound 0.949 µM, first compound 0.0316 µM
[13] = second compound 0.949 µM, first compound 0.1 µM
[14] = second compound 0.949 µM, first compound 0.316 µM
[15] = second compound 0.949 µM, first compound 1 µM
[16] = second compound 0.949 µM, first compound 3.16 µM
[17] = second compound 0.949 µM, first compound 10 µM
[18] = second compound 3 µM, first compound 0.0316 µM
[19] = second compound 3 µM, first compound 0.1 µM
[20] = second compound 3 µM, first compound 0.316 µM
[21] = second compound 3 µM, first compound 1 µM
[22] = second compound 3 µM, first compound 3.16 µM
[23] = second compound 3 µM, first compound 10 µM
[24] = second compound 9.49 µM, first compound 0.0316 µM
[25] = second compound 9.49 µM, first compound 0.1 µM
[26] = second compound 9.49 µM, first compound 0.316 µM
[27] = second compound 9.49 µM, first compound 1 µM
[28] = second compound 9.49 µM, first compound 3.16 µM
[29] = second compound 9.49 µM, first compound 10 µM
[30] = second compound 30 µM, first compound 0.0316 µM
[31] = second compound 30 µM, first compound 0.1 µM
[32] = second compound 30 µM, first compound 0.316 µM
[33] = second compound 30 µM, first compound 1 µM
[34] = second compound 30 µM, first compound 3.16 µM
[35] = second compound 30 µM, first compound 10 µM
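Further: spheroids exposed to drugs for seven days before readout.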

CC(C)n1nc(-c2ccc3oc(N)nc3c2)c2c(N)ncnc21
47.2 nM and 65.2 nM: IC50 (curve of compound)
inactive: viability, T/C (compound 0.000316 µM) 107% and 99.8% | viability, T/C (compound 0.001 µM) 89.1% and 102% | viability, T/C (compound 0.00316 µM) 80.7% and 95.7% | viability, T/C (compound 0.01 µM) 79.8% and 95.6% | viability, T/C (compound 0.0316 µM) 51.6% and 63.9% | viability, T/C (compound 0.1 µM) 39% and 41.8%

CC(C)(C)c1nc(-c2cccc(NS(=O)(=O)c3c(F)cccc3F)c2F)c(-c2ccnc(N)n2)s1 + CC(C)NCC(C(=O)N1CCN(c2ncnc3c2C(C)CC3O)CC1)c1ccc(Cl)cc1
inactive: viability, T/C [6] 115% | viability, T/C [7] 135% | viability, T/C [8] 135% | viability, T/C [9] 134% | viability, T/C [10] 96.8% | viability, T/C [11] 60.3% | viability, T/C [12] 116% | viability, T/C [13] 117% | viability, T/C [14] 109% | viability, T/C [15] 100% | viability, T/C [16] 79.5% | viability, T/C [17] 49.1% | viability, T/C [18] 89.8% | viability, T/C [19] 93.8% | viability, T/C [20] 72.2% | viability, T/C [21] 92.1% | viability, T/C [22] 75.4% | viability, T/C [23] 32.8% | viability, T/C [24] 92.3% | viability, T/C [25] 83.9% | viability, T/C [26] 65.1% | viability, T/C [27] 66.2% | viability, T/C [28] 71.4% | viability, T/C [29] 33.4% | viability, T/C [30] 59.7% | viability, T/C [31] 56.7% | viability, T/C [32] 50.9% | viability, T/C [33] 51.2% | viability, T/C [34] 44.8% | viability, T/C [35] 28.7%
9730 nM: IC50 [2]
4960 nM: IC50 [4]
6270 nM: IC50 [3]
1070 nM: IC50 [5]
> 10000 nM: IC50 [1]

CC(C)CC(NC(=O)C(Cc1ccccc1)NC(=O)c1cnccn1)B(O)O (configuration not stated) + CC(C)NCC(C(=O)N1CCN(c2ncnc3c2C(C)CC3O)CC1)c1ccc(Cl)cc1
4.97 nM: IC50 [3]
5.25 nM: IC50 [2]
active: viability, T/C (second compound 0.3 µM, first compound 0.01 µM) 7.88% | viability, T/C (second compound 0.949 µM, first compound 0.01 µM) 7.37% | viability, T/C (second compound 3 µM, first compound 0.01 µM) 7.09% | viability, T/C (second compound 9.49 µM, first compound 0.01 µM) 4.23% | viability, T/C (second compound 30 µM, first compound 0.01 µM) 1.83%
inactive: viability, T/C (second compound 0.3 µM, first compound 31.6 pM) 105% | viability, T/C (second compound 0.3 µM, first compound 0.0001 µM) 101% | viability, T/C (second compound 0.3 µM, first compound 0.000316 µM) 91.4% | viability, T/C (second compound 0.3 µM, first compound 0.001 µM) 92.8% | viability, T/C (second compound 0.3 µM, first compound 0.00316 µM) 93.9% | viability, T/C (second compound 0.949 µM, first compound 31.6 pM) 80.2% | viability, T/C (second compound 0.949 µM, first compound 0.0001 µM) 85.4% | viability, T/C (second compound 0.949 µM, first compound 0.000316 µM) 78.1% | viability, T/C (second compound 0.949 µM, first compound 0.001 µM) 82.6% | viability, T/C (second compound 0.949 µM, first compound 0.00316 µM) 91.8% | viability, T/C (second compound 3 µM, first compound 31.6 pM) 70% | viability, T/C (second compound 3 µM, first compound 0.0001 µM) 81.6% | viability, T/C (second compound 3 µM, first compound 0.000316 µM) 76.6% | viability, T/C (second compound 3 µM, first compound 0.001 µM) 78.2% | viability, T/C (second compound 3 µM, first compound 0.00316 µM) 81.8% | viability, T/C (second compound 9.49 µM, first compound 31.6 pM) 100% | viability, T/C (second compound 9.49 µM, first compound 0.0001 µM) 110% | viability, T/C (second compound 9.49 µM, first compound 0.000316 µM) 111% | viability, T/C (second compound 9.49 µM, first compound 0.001 µM) 94.3% | viability, T/C (second compound 9.49 µM, first compound 0.00316 µM) 113% | viability, T/C (second compound 30 µM, first compound 31.6 pM) 54.3% | viability, T/C (second compound 30 µM, first compound 0.0001 µM) 64.6% | viability, T/C (second compound 30 µM, first compound 0.000316 µM) 56.2% | viability, T/C (second compound 30 µM, first compound 0.001 µM) 56.7% | viability, T/C (second compound 30 µM, first compound 0.00316 µM) 68.6%
5.95 nM: IC50 [4]
3.86 nM: IC50 [5]
5.69 nM: IC50 [1]

Cc1nc(NC(=O)N2CCCC2C(N)=O)sc1-c1ccnc(C(C)(C)C(F)(F)F)c1 (configuration not stated) + CC(C)NCC(C(=O)N1CCN(c2ncnc3c2C(C)CC3O)CC1)c1ccc(Cl)cc1
123 nM: IC50 [4]
active: viability, T/C [34] 11% | viability, T/C [35] 6.07%
159 nM: IC50 [3]
inactive: viability, T/C [6] 109% | viability, T/C [7] 84.3% | viability, T/C [8] 58.2% | viability, T/C [9] 49% | viability, T/C [10] 45.1% | viability, T/C [11] 30.1% | viability, T/C [12] 76.2% | viability, T/C [13] 69% | viability, T/C [14] 52.5% | viability, T/C [15] 45% | viability, T/C [16] 34.8% | viability, T/C [17] 27.7% | viability, T/C [18] 78.7% | viability, T/C [19] 54% | viability, T/C [20] 40.6% | viability, T/C [21] 31.3% | viability, T/C [22] 22.3% | viability, T/C [23] 15.2% | viability, T/C [24] 70.7% | viability, T/C [25] 55.4% | viability, T/C [26] 29.5% | viability, T/C [27] 19.6% | viability, T/C [28] 13.7% | viability, T/C [29] 8.86% | viability, T/C [30] 48% | viability, T/C [31] 42.7% | viability, T/C [32] 23.9% | viability, T/C [33] 17.2%
909 nM: IC50 [1]
< 31.6 nM: IC50 [5]
533 nM: IC50 [2]
